Source: ChEMBL document CHEMBL5465560, “Selectivity Literature for EUbOPEN Chemogenomic Library” (2024)

Key:
[1] = target: Serine/threonine-protein kinase Nek4 (Homo sapiens) (UniProt P51957); test: Selectivity interaction (ProQinase) EUB0000171b NEK4
[2] = target: Myosin light chain kinase 2, skeletal/cardiac muscle (Homo sapiens) (UniProt Q9H1R3); test: Selectivity interaction (KinomeScan (DiscoverX)) EUB0001079a MYLK2; conditions: at 1 µM
[3] = target: SRSF protein kinase 2 (Homo sapiens) (UniProt P78362); test: Selectivity interaction (KinomeScan (DiscoverX)) EUB0000666a SRPK2; conditions: at 10 µM
[4] = target: Platelet-derived growth factor receptor beta (Homo sapiens, UniProt P09619); test: Selectivity interaction (KinomeScan (DiscoverX)) EUB0001049a PDGFRB; conditions: at 1 µM
[5] = target: T1, Mitogen-activated protein kinase kinase kinase 19 (Homo sapiens) (UniProt Q56UN5); test: Selectivity interaction (KinomeScan (DiscoverX)) EUB0001049a MAP3K19; conditions: at 1 µM
T1 sequence (whole entry): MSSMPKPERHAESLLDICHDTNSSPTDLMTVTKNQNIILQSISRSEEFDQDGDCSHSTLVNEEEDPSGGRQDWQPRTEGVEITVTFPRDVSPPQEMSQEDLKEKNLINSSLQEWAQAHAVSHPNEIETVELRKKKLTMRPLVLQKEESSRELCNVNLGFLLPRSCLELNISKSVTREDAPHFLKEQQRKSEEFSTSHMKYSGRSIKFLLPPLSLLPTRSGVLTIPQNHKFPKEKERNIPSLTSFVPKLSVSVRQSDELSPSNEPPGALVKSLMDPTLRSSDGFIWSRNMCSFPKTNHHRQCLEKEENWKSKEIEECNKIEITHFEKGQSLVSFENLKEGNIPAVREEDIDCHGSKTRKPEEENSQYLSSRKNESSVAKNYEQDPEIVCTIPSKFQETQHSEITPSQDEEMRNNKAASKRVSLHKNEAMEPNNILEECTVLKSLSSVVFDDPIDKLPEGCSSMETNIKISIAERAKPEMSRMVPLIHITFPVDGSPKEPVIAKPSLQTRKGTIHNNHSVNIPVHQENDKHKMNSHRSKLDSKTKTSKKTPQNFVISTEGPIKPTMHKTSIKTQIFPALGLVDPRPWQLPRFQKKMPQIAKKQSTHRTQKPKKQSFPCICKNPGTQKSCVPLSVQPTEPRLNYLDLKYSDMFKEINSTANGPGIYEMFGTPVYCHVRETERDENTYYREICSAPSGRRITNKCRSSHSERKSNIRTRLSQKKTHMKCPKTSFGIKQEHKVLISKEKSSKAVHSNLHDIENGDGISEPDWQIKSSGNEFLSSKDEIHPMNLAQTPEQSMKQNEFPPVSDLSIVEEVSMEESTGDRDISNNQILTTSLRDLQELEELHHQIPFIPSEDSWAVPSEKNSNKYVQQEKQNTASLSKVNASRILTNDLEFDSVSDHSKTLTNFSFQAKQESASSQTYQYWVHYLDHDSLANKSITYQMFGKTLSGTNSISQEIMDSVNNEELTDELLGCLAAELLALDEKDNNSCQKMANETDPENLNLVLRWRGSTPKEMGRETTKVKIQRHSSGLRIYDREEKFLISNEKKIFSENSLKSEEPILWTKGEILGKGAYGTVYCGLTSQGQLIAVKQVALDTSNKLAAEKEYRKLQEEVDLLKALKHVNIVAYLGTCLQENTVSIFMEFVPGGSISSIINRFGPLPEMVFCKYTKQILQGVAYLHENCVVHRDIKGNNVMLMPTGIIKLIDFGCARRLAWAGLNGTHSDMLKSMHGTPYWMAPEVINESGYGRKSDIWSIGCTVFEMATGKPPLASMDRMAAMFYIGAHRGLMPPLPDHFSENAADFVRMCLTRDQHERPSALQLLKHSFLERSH

[6] = target: T2, Mitogen-activated protein kinase kinase kinase 5 (Homo sapiens) (UniProt Q99683); test: Selectivity interaction (KinomeScan (DiscoverX)) EUB0000618a MAP3K5; conditions: at 10 µM
T2 sequence (whole entry): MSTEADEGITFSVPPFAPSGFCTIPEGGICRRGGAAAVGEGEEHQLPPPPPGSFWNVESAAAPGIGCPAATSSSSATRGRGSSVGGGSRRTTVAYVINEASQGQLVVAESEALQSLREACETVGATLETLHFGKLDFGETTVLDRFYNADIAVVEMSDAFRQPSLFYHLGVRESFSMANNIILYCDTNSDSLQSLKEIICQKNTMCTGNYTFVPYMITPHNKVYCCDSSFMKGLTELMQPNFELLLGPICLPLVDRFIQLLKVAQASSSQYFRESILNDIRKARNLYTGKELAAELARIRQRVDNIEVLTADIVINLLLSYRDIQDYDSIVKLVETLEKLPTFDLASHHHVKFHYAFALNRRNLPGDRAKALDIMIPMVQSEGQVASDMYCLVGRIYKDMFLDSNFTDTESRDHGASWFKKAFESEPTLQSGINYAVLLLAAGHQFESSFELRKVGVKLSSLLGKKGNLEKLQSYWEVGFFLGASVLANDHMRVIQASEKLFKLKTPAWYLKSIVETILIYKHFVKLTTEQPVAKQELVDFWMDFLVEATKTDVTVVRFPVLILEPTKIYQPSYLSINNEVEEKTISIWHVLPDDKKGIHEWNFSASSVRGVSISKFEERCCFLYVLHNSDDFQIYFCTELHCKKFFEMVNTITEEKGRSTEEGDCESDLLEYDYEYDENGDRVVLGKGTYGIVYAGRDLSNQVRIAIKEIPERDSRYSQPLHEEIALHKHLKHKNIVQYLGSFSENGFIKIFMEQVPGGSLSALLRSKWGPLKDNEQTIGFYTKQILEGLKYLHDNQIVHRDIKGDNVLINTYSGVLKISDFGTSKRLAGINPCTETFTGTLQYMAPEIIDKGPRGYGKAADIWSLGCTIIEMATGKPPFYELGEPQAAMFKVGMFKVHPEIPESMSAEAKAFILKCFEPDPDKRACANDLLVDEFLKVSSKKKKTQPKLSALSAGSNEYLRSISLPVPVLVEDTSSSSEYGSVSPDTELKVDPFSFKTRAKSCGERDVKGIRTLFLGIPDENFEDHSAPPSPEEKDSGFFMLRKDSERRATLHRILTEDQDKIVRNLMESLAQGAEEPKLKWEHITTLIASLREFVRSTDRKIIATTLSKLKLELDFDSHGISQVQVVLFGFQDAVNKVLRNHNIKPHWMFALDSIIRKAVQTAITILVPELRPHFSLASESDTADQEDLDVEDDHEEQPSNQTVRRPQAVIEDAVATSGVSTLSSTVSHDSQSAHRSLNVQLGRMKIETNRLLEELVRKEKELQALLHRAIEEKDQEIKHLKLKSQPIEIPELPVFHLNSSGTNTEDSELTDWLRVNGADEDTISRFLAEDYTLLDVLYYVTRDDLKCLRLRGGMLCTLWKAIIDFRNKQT

Serine/threonine-protein kinase Nek4 (Homo sapiens), sequence (P51957 whole entry, looked up): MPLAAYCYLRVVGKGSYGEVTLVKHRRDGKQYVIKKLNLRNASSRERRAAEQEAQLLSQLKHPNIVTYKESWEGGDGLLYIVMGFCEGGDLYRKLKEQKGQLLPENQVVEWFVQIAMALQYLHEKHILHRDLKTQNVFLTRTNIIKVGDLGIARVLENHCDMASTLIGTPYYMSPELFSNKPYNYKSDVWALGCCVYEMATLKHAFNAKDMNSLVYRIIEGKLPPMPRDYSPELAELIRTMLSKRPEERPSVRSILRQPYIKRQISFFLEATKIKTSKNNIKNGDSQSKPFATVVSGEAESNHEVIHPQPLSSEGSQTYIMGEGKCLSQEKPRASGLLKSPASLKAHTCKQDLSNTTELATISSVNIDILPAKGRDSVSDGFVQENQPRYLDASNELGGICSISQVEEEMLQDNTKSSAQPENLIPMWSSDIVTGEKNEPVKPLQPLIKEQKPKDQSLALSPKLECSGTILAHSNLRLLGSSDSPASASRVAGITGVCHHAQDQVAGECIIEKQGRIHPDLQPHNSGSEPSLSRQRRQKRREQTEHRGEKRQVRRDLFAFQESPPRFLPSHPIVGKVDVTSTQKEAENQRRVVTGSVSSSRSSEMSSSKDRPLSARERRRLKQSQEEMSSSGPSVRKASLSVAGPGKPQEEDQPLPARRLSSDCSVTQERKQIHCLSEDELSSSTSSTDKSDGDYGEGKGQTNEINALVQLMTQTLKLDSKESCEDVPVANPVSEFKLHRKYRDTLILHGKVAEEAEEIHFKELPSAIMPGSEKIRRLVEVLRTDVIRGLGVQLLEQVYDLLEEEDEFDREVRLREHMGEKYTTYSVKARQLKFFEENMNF
SRSF protein kinase 2 (Homo sapiens), sequence (P78362 whole entry, looked up): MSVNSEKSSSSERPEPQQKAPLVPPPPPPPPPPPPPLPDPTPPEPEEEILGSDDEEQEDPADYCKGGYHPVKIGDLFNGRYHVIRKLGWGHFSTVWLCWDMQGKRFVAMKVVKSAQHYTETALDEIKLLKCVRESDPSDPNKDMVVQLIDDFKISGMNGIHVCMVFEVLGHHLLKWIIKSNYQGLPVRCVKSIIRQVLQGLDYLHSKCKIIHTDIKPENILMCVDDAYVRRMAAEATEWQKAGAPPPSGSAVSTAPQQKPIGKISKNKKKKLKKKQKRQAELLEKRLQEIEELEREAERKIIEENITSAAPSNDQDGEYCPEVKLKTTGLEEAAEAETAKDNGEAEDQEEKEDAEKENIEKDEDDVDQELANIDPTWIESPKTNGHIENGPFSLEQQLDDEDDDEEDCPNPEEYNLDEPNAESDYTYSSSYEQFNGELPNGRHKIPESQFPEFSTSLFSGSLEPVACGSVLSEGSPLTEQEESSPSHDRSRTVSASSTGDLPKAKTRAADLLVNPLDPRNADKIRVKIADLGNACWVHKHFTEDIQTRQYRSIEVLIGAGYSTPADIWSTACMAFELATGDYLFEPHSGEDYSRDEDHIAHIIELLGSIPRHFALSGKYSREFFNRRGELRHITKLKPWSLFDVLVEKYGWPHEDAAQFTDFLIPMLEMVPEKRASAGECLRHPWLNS
Platelet-derived growth factor receptor beta, sequence (P09619 whole entry): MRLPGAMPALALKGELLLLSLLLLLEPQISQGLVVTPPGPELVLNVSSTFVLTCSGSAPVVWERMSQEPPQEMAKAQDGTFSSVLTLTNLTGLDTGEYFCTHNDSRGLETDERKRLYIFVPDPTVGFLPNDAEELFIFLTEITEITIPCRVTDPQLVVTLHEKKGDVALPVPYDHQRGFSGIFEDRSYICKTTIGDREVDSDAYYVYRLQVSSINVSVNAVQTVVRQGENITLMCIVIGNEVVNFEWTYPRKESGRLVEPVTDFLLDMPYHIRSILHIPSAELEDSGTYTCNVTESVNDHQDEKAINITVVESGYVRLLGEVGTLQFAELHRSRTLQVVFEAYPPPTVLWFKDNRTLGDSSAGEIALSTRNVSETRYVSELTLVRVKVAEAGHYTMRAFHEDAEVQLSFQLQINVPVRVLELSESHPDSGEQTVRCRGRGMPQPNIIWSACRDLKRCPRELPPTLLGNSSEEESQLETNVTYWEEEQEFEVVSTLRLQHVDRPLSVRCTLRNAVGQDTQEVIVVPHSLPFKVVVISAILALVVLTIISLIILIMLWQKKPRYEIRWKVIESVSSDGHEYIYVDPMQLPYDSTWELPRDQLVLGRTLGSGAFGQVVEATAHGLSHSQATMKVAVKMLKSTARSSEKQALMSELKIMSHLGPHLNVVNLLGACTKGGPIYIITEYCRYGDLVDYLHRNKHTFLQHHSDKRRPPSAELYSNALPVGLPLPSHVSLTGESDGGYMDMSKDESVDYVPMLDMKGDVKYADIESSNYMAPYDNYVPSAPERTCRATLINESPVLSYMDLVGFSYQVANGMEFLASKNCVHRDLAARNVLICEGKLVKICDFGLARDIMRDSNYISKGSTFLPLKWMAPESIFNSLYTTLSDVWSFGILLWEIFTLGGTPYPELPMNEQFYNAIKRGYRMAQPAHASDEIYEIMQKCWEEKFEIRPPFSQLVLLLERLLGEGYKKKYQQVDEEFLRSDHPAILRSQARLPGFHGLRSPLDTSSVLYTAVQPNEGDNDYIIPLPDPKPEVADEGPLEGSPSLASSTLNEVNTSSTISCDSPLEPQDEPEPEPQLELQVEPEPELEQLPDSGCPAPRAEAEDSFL
Myosin light chain kinase 2, skeletal/cardiac muscle (Homo sapiens), sequence (Q9H1R3 whole entry): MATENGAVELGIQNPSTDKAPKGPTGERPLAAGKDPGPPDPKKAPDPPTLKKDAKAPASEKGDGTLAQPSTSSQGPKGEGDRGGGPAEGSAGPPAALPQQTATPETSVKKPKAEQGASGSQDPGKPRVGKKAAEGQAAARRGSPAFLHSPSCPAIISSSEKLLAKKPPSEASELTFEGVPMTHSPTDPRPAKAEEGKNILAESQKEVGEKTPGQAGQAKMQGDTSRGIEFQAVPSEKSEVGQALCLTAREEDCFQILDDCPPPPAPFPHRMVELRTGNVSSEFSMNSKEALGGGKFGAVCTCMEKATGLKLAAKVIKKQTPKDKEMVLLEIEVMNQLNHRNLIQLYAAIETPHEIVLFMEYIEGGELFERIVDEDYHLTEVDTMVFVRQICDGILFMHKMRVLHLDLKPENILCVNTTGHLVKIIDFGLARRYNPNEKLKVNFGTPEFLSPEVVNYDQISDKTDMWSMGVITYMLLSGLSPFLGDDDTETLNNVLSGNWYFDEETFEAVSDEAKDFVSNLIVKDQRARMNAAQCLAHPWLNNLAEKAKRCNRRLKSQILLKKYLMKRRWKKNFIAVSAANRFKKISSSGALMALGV

## C=CC(=O)Nc1cccc(C(=O)Nc2ccc(Nc3cc(-c4[nH]c(SC)nc4C)ccn3)cc2)c1
[1]; at 1 µM
  % of control: 79%
[1]; at 5 µM
  % of control: 51%

## Nc1cnc(N2CCc3cc(S(=O)(=O)Nc4c(F)cc(Cl)cc4F)cc(N4CCCC4=O)c32)nc1 [TP-020n]
[2]
  % of control: 87%

## O=C(NOC[C@H](O)CO)c1ccc(F)c(F)c1Nc1ccc(I)cc1F
[3]
  % of control: 100%

## COc1cc(Nc2nc(C)cc(-c3cnn4nc(OC)ccc34)n2)cc(C(F)(F)F)c1
[4]
  % of control: 100%
[5]
  % of control: 75%

## O[C@H]1CC[C@H](Nc2ncc3nc(Nc4c(F)cc(F)cc4F)n([C@H]4CCOC4)c3n2)CC1
[6]
  % of control: 100%
